What was measured:
PDZ domains [1] = assay: Modified ELISA: profile (matrix) screen of biotinylated peptide against individual GST-PDZ domain fusion proteins; type: binding, human
Source text: Profile Results Peptides corresponding to the C-terminus were able to bind a number of PDZ domains in a concentration dependent manner. […] Identities of the interacting PDZ domains are listed directly above or next to the bar representing the absorbance in the assay.
The results, shown in FIGS. 11, 12 and 13, represent the absorbance and standard deviation of interactions of higher relative strength. The data in FIG. 13 for PDZK1, PTPL1 d5, MUPP1 d4 and INADL d1 have high standard deviations and thus require further verification to validate intensity of binding.

[2] = biological target: T1, biotinylated TAT-MUC1 binding to ZO1 d2 (Homo sapiens, UniProt Q07157); assay: Modified ELISA: competition with binding of biotinylated TAT-MUC1 peptide (SEQ ID NO: 134) to PDZ domain
T1 construct: made in house; host or cells: E. coli
T1 sequence (Q07157 186-264 limits assumed): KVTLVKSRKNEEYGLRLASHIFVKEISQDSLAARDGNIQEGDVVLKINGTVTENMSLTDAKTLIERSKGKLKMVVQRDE

[3] = biological target: T2, biotinylated TAT-MUC1 binding to RIM2 (Homo sapiens, UniProt Q9UQ26); assay: as above; conditions: FIG. 10, among three peptides
T2 construct: RIM2, PDZ domain 1: GI#: 12734165; made in house; host or cells: E. coli
T2 sequence (Q9UQ26 668-754 limits assumed): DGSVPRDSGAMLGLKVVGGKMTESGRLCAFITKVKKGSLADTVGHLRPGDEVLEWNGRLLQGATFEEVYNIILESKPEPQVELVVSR

[4] = biological target: T3, KIAA0751 (RIM2) PDZ domain 1 (Homo sapiens, UniProt Q9UQ26); assay: Modified ELISA: titration of biotinylated peptide against GST-PDZ domain fusion protein; type: binding
T3 construct: RIM2, PDZ domain 1: GI#: 12734165; made in house; host or cells: E. coli
T3 sequence (Q9UQ26 668-754 limits assumed): T2 sequence (Q9UQ26 668-754 limits assumed)
Experimental: Coat plate with 100 μl of 5 μg/ml anti-GST, O/N at 4° C.;
Dump contents of plate & out tap dry on paper towels;
Block with 200 μl Assay Buffer for 2 hrs at room temperature;
Prepare proteins in Assay Buffer;
Add proteins at 50 μl per well, incubate 1 to 2 hrs at 4° C.;
Prepare peptides in Assay Buffer;
Add peptides at 50 μl per well on ice (write time on plate);
Incubate on ice after last peptide has been added for exactly 10 minutes;
Place at room temp for exactly 20 minutes;
Prepare HRP-Streptavidin within 10 minutes of time of use;
Promptly wash 3× with cold PBS;
Add 100 μl per well of HRP-Streptavidin (write time on plate);
Incubate at 4° C. for exactly 20 minutes;
Turn on plate reader and prepare files;
Promptly wash 5× with PBS at room temperature;
Add 100 μl/well TMB substrate (write time on plate);
Incubate in dark at room temp for a maximum of 30 minutes;
Read plate at 25 minutes (650 nm);
Stop reaction with 100 μl of 0.18M H2SO4, 30 min. after adding TMB;
Take last reading at 450 nm soon after stopping reaction;
Titrations to determine relative EC50 values: Peptide corresponding to MUC1 was then titrated against a constant amount of the PDZ domain-containing recombinant proteins identified in the first part of this example.
Using the modified ELISA described supra in Example 6, the effect of two variant carboxy-terminal MUC1 peptides were examined. Two MUC1 isoforms with an A/T substitutions at the fifth amino acid residue from the carboxy-terminal end have been reported in the literature, e.g., carboxy-terminal AAASANL disclosed in GenBank P15941 [gi:547937] and carboxy-terminal AATSANL disclosed in GenBank A35175 [gi:11385307]. Peptides were prepared consisting of the TAT sequence SEQ ID NO: 102 and the terminal nine amino acid residues of the relevant MUC1 sequence, i.e., […]
Using the modified ELISA described supra in Example 7, the binding to the RIM2 PDZ domain of the biotinylated peptide sequences listed in Table 8 were examined. […] Relative EC50 values were calculated from a curve fit of the data for each interaction.

PDZ domains [5] = assay: Self-competition experiments in modified ELISA; type: binding, human; conditions: of the three peptides tested

NGGSSLSYTNPAVAATSANL [MUC1 peptide]
Interactions with higher absorbance readings in PDZ profile (PDZ domains [1]; MUC1 peptide concentration 0.01 μm, FIG. 3): seven interactions are observed to give higher absorbance readings | Interactions with higher absorbance readings in PDZ profile (PDZ domains [1]; MUC1 peptide concentration 0.1 μm, FIG. 4): more interactions are observed

YGRKKRRQRRRARGDRKRIV [SEQ ID NO: 136]
Competition for binding of biotinylated SEQ ID NO: 134 (TAT-MUC1) [2]: can also compete for binding | Competitive inhibition of biotinylated SEQ ID NO: 134 (TAT-MUC1) binding [3]: best competitive inhibitor

YGRKKRRQRRRQDEEEGIWA [SEQ ID NO: 137]
EC50 for binding to RIM2, compared with SEQ ID NO: 136 [4]: lower EC50 | Selectivity of binding, RIM2 versus ZO 1 d2 [4]: binds RIM2 more strongly than ZO 1 d2 | Tightness of binding to RIM2 among the three peptides ([4]; comparison of SEQ ID NO: 136, 137, 138): binds most tightly | Competition for binding of biotinylated SEQ ID NO: 134 (TAT-MUC1) [2]: only a relatively weak competitor | Behaviour in self-competition experiments (PDZ domains [5]): acts the most like a traditional competitive inhibitor
